System: Pimephales promelas
Assay: 96 h LC50 (-log10 mol/L); higher = more toxic

SMILES	96 h LC50 (-log10 mol/L)
CCCCN(CC)c1c([N+](=O)[O-])cc(C(F)(F)F)cc1[N+](=O)[O-]	6.53
CC(O)(c1ccc(Cl)cc1)c1ccc(Cl)cc1	5.25
CC1(C)[C@@H]2CC[C@@]1(C)C(=O)C2	3.14
COCCCNCc1cc(OC)c(OC)c(OC)c1	3.3
O=C(CCl)c1ccc(Cl)cc1	4.21
CCCCCCCC/C=C\CCCCCCCC(=O)O	3.14
CC(C)(c1cc(Cl)c(O)c(Cl)c1)c1cc(Cl)c(O)c(Cl)c1	5.44
CCOP(=S)(OCC)SCSP(=S)(OCC)OCC	5.73
CC(=O)Nc1ccccc1O	3.66
CCNc1nc(NC(C)C)nc(SC)n1	4.38
CC(C)=CC1C(C(=O)OCc2ccc(C)cc2C)C1(C)C (stereo not drawn)	6.67
OCCN(CCO)c1ccccc1	2.39
CCOP(=S)(OCC)Oc1nc(Cl)c(Cl)cc1Cl	6.36
Nc1ccc(O)c([N+](=O)[O-])c1	3.63
COc1ccc(OC)c(C(=O)CBr)c1	6.65
Cc1cc2cccc(C)c2cc1C	4.42
C=C(C)C1CC=C(C)CC1 (stereo not drawn)	2.15
O=C1C2CC3CC(C2)CC1C3	3.39
CC(C)(C)CN	2.26
CCCCOCC(C)OC(=O)C(C)Oc1cc(Cl)c(Cl)cc1Cl (stereo not drawn)	4.73
O=C(O)[C@@H]1[C@H](C(=O)O)[C@H]2CC[C@@H]1O2	4.08
COc1ccc(O)cc1	3.11

SMILES	96 h LC50 (-log10 mol/L)
C#CCC(C)O (stereo not drawn)	3.38
O=C(Nc1cccc(Cl)c1)c1cccc([N+](=O)[O-])c1O	6.08
CCN(CC)c1c([N+](=O)[O-])cc(C(F)(F)F)c(N)c1[N+](=O)[O-]	5.39
CC=CC=CC	3.61
CCc1cccc(C)c1N(C(=O)CCl)C(C)COC (stereo not drawn)	4.54
Fc1ccc(Oc2ccc(F)cc2)cc1	5.26
O=Cc1ccco1	3.57
C1N2CN3CN1CN(C2)C3	0.449
COc1ccccc1[N+](=O)[O-]	2.9
CCN(CC)CCCC(C)=O	2.67
CCC(C)C=O (stereo not drawn)	3.94
Cc1cccnc1	2.81
Cc1ccc(N(C)C)cc1	3.42
CCOC(=O)/C=C/C(=O)OCC	4.58
C=CCC1=C(C)[C@@H](OC(=O)[C@@H]2[C@@H](C=C(C)C)C2(C)C)CC1=O	6.67
c1cc[n+]2c(c1)-c1cccc[n+]1CC2	4.12
CCCCCCCCS(=O)C(C)Cc1ccc2c(c1)OCO2 (stereo not drawn)	5.64
c1ccc(Nc2ccccc2)cc1	4.65
CCCCN(C=O)CCCC	3.25
Cc1c([N+](=O)[O-])ccc([N+](=O)[O-])c1N	5.37
COCOC	1.04
C#CCCO	3.29

SMILES	96 h LC50 (-log10 mol/L)
CCCCCCCCCCCCN	6.25
CC(C)=CCC/C(C)=C/CN(C/C=C(\C)CCC=C(C)C)CCO	6.41
C=CCCCCCCC=C	5.68
COP(=O)(OC)Oc1nc(Cl)c(Cl)cc1Cl	8.16
Clc1cc(Cl)cc(C2(CC(Cl)(Cl)Cl)CO2)c1 (stereo not drawn)	5.38
c1ccc2c(c1)CCC2	3.93
OCCN1CCNCC1	1.31
CCOP(=O)(OCC)OP(=O)(OCC)OCC	5.35
O=S(c1ccccc1)c1ccccc1	3.37
Oc1ccc(Oc2ccc(O)cc2)cc1	4.54
CCCCOc1ccccc1	4.42
CN(C)C(=O)Nc1ccc(Cl)c(Cl)c1	4.21
CCOC(=O)[C@H](O)[C@@H](O)C(=O)OCC	2.5
CCCCOCCOC(=O)C(C)Oc1cc(Cl)c(Cl)cc1Cl (stereo not drawn)	5.57
C=CC(=C)C	2.95
OC(C(F)(F)F)C(F)(F)F	2.84
CC(C)(C)SSC(C)(C)C	5.12
CCC1(CCC(C)C)C(=O)NC(=O)NC1=O	3.42
CC(=O)Br	3.48
CCOC(=O)/C=C\C(=O)OCC	3.98
CCN(CCO)c1cccc(C)c1	3.53
C=C(Cl)Cl	2.86

SMILES	96 h LC50 (-log10 mol/L)
O=C(O)CCCOc1ccc(Cl)cc1Cl	4.14
OCC(F)(F)F	2.92
COP(O)(=S)OC	3.52
CCOP(=S)(OCC)Oc1ccc(S(C)=O)cc1 (stereo not drawn)	3.85
CC1=CC[C@@H]2C[C@H]1C2(C)C	5.69
c1ccc2c(c1)CCO2	3.17
O=[N+]([O-])c1ccc(O)cc1C(F)(F)F	4.51
CCCCCCCCCCc1ccc(N)cc1	6.57
CCCCC(=O)CCCC	3.66
C=C(C)C(=C)C	4.08
C=C(C)[C@H]1CC=C(C)CC1	5.28
BrCCCBr	5.05
Cc1c(Cl)cc(C(C)(C)C)c(O)c1C(=O)Nc1ccc([N+](=O)[O-])cc1Cl	7.69
CC(C)SSC(C)C	4.26
COc1ccccc1C(N)=O	3.1
C#CC(O)CCCCC (stereo not drawn)	5.49
CC1CNCC(C)O1 (stereo not drawn)	2.47
CC1(C)NC(=O)NC1=O	0.89
O=CN(c1ccccc1)c1ccccc1	3.81
C=C1[C@H]2CC[C@@H]3[C@H]2C(C)(C)CCC[C@]13C	4.3
CC(=O)Cl	3.27
COC(=O)c1ccc(O)cc1O	3.6
